System: MAGI-CCR5/HeLa-R5-16 cell fusion, beta-gal luminescence
Test: inhibitors of CCR5-tropic HIV-1 Env cell-cell fusion, dose response, MAGI-CCR5 and HeLa-R5-16 cells, 2% serum, set 2 (AID 504551)

Compound	IC50
COc1ccccc1Cn1c(O)cc2nn(-c3nc4ccccc4s3)c(=O)c-2c1C	3.73 µM
COc1ccc(CCn2c(O)cc3nn(-c4nc5ccccc5s4)c(=O)c-3c2C)cc1	3.49 µM
Cc1c2c(=O)n(-c3nc4ccccc4s3)nc-2cc(O)n1CCC(C)C	3.25 µM
Cc1c2c(=O)n(-c3nc4ccccc4s3)nc-2cc(O)n1Cc1ccc(F)cc1	3.42 µM
Cc1c2c(=O)n(-c3nc4ccccc4s3)nc-2cc(O)n1Cc1ccncc1	3.94 µM
Cc1c2c(=O)n(-c3nc4ccccc4s3)nc-2cc(O)n1C1CC1	3.75 µM
Cc1c2c(=O)n(-c3nc4ccccc4s3)nc-2cc(O)n1Cc1cccs1	3.5 µM
Cc1c2c(=O)n(-c3nc4ccccc4s3)nc-2cc(O)n1Cc1ccccc1	3.94 µM
Cc1c2c(=O)n(-c3nc4ccccc4s3)nc-2cc(O)n1Cc1cccnc1	3.64 µM
Cc1c2c(=O)n(-c3nc4ccccc4s3)nc-2cc(O)n1CCc1ccc(O)cc1	3.36 µM
Cc1c2c(=O)n(-c3nc4ccccc4s3)nc-2cc(O)n1Cc1ccccc1Cl	3.4 µM
COc1ccc(Cn2c(O)cc3nn(-c4nc5ccccc5s4)c(=O)c-3c2C)cc1	3.57 µM
Cc1c2c(=O)n(-c3nc4ccccc4s3)nc-2cc(O)n1CCc1cccs1	3.7 µM

— PubChem BioAssay AID504551 (Southern Research Specialized Biocontainment Screening …, 2011)
